The values below come from ChEMBL document CHEMBL1201862, “PubChem BioAssay data set” (2004).

Calls of active or inactive are those of the source. Where only a bound is given, the exact number is not on record here.

Data set [1] is described as follows: viability of uninfected HEp-2 cells – cell-based, HTS, cytotoxicity control for RSV inhibitor project, dose response (AID 2410). As to conditions: human respiratory syncytial virus. The format is functional.
The nature of data set [2]: Luminescence Cell-Based Dose Retest to Confirm Inhibitors of Cancer Stem Cells. [Related pubchem assays (depositor defined):AID2717, AID2721]. As to conditions: Homo sapiens. The format is functional.
The target in data set [3] is Luciferin 4-monooxygenase (Photinus pyralis, UniProt P08659). In words: inhibition of purified Photinus pyralis luciferase – biochemical, luminescence, dose response (AID 1891).
Data set [4] in a line: Luminescence Cell-Based Dose Confirmation HTS to Identify Inhibitors of Platelet Dense Granule Release. [Related pubchem assays: 1663 (Primary HTS), 1678 (Summary of Project)]. It counts as functional.
A further data set addresses Cytochrome P450 2C19 (Homo sapiens, UniProt P33261). In words: Cytochrome panel assay with activity outcomes. Panel member name: p450-cyp2c19 Compounds with AC50 equal or less than 10 uM are considered active. The format is functional.
In the next data set the target is Cytochrome P450 2D6 (Homo sapiens, UniProt P10635).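 Also: CYP2D6 member of a cytochrome P450 panel assay.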
The target of another data set is T1, Cytochrome P450 1A2 (Homo sapiens, UniProt P05177).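 Also: PubChem cytochrome P450 panel assay, CYP1A2 panel member.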
T1 sequence (P05177 whole entry): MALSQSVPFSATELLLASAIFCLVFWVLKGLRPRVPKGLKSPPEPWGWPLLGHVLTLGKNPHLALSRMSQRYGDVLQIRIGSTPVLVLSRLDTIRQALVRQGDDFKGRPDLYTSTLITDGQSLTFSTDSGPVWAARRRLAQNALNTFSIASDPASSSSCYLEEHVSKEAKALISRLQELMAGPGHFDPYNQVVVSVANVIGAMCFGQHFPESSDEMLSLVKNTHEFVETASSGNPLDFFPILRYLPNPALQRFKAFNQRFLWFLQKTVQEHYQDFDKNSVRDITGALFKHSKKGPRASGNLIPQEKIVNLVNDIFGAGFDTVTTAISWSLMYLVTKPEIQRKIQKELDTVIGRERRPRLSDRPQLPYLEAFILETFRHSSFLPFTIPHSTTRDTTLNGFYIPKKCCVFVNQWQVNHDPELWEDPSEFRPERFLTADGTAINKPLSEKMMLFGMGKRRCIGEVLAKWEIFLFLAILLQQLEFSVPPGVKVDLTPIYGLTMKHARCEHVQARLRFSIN

For a further data set, the target named is Cytochrome P450 3A4 (Homo sapiens, UniProt P08684).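 Also: CYP3A4 tested as one member of a cytochrome P450 panel screen.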
Data set [5] is described as follows: NIH-3T3 fibroblast cytotoxicity, dose response, cytotoxicity control, cell-based, fluorescence, Alamar Blue, secondary assay (AID 2327).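 Also: NIH-3T3 mouse fibroblasts cultured with fluconazole at 8 µg/mL.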 The format is functional. On the technique in general: Resazurin is reduced to fluorescent resorufin, in cell work by metabolically active cells.
Data set [6] in a line: fluconazole-exposed Candida albicans growth modulators – fluorescence, retest, confirmation (AID 2467). The format is functional, cell-based.
Data set [7] can be described thus: Trypanosoma cruzi growth suppression in host cells – NIH3T3 host cells, beta-gal luminescence, confirmation (AID 2044).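 Also: intracellular parasites grown in NIH/3T3 mouse fibroblasts as host cells; luminescent beta-galactosidase reporter signal from transgenic T. cruzi replicating inside host cells; inhibitors lower the luminescence signal.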 The format is functional, cell-based.
A short description of data set [8]: NIH3T3 cell viability loss – ATP luminescence, mouse fibroblasts, counter-screen, dose response (AID 2010).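 Also: cells exposed to compound for about 90 hours before reading.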 The format is functional, cell-based. Background: Counterscreens check selectivity or assay interference.
The target in the next data set is Cytochrome P450 2C9 (Homo sapiens, UniProt P11712).
Sequence of Cytochrome P450 2C9 (P11712 whole entry): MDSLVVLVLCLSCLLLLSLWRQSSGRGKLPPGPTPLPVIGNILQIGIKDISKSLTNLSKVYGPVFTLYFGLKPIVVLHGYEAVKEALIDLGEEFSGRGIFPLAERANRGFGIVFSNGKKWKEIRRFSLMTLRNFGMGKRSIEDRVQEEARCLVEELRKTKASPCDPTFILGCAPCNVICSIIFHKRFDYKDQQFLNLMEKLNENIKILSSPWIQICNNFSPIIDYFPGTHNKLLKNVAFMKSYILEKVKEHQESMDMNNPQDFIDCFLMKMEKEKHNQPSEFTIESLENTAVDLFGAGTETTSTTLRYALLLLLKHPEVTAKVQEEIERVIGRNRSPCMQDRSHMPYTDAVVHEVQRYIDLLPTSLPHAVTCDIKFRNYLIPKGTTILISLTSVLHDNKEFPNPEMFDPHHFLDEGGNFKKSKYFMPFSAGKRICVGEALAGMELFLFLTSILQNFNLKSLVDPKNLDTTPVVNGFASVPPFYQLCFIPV

Sequence of Cytochrome P450 2C19 (P33261 whole entry): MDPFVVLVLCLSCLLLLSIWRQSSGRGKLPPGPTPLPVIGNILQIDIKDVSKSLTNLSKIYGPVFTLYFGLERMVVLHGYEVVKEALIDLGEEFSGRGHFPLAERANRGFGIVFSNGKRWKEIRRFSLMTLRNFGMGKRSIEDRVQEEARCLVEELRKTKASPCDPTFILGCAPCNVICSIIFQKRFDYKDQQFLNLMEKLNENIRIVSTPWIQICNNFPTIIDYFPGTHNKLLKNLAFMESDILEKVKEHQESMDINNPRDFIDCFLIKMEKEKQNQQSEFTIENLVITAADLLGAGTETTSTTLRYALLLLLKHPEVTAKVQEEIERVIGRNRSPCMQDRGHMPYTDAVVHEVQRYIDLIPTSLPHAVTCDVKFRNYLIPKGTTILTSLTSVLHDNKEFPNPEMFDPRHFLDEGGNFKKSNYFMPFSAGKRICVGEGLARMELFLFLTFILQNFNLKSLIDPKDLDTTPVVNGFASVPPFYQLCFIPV
Sequence of Luciferin 4-monooxygenase (P08659 whole entry): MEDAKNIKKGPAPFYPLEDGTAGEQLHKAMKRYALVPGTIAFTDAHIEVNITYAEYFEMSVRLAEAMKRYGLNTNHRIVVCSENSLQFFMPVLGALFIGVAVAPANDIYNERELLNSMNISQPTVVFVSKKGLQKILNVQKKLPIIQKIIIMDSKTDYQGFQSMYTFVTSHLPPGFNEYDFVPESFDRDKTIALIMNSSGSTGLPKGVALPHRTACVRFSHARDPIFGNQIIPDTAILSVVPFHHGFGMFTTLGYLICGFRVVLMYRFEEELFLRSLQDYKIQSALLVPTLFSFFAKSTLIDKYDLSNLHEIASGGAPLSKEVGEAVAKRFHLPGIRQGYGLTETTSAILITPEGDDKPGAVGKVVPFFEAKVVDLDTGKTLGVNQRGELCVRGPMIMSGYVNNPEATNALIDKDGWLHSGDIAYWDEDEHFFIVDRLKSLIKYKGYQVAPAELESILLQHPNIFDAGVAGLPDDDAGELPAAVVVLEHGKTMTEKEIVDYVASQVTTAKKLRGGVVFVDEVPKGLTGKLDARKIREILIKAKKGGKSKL
Sequence of Cytochrome P450 3A4 (P08684 whole entry): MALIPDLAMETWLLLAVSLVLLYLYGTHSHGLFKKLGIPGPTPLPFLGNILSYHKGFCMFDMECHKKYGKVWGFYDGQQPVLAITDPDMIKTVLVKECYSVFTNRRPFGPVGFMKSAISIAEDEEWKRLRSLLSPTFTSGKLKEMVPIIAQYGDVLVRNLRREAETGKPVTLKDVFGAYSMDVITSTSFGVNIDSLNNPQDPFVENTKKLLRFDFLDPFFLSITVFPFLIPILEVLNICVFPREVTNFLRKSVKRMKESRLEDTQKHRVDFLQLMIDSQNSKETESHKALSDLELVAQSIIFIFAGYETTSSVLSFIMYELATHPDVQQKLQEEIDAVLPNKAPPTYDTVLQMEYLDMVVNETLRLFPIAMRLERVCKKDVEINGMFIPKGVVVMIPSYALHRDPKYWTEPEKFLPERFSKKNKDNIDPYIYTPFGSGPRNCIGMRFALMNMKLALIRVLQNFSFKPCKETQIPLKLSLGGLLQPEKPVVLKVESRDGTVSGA
Sequence of Cytochrome P450 2D6 (P10635 whole entry): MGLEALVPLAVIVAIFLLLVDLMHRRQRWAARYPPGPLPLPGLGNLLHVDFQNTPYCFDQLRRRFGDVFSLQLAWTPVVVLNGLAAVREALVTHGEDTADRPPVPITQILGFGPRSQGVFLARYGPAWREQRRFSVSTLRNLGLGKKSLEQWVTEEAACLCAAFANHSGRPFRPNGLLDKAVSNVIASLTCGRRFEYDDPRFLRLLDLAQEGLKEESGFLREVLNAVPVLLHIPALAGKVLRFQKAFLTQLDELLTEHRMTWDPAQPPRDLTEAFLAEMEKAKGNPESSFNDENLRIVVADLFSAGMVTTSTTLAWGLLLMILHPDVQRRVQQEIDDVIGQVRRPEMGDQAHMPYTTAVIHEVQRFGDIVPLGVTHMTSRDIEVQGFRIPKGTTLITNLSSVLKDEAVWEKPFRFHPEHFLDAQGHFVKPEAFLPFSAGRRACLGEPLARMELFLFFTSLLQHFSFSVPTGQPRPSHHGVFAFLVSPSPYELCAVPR

Consider `O=C(Cn1cnc2c(cnn2-c2ccccc2)c1=O)N1CCOCC1`, for which the cytotoxic concentration (CC50) (commonly the concentration at which the toxic effect on the cells reaches its halfway point) in data set [1] was 30.5 µM (active).

As for `O=C(Cc1ccc(Cl)cc1)Nc1ccc2c(c1)C(=O)NC2=O`, the AC50 (as a rule, the midpoint of the concentration-response curve, whichever way the signal moves) in data set [2] was > 195 µM (inactive).

As for `CCc1nnc(NC(=O)CSc2nnc(Cc3cccn3C)n2CCOC)s1`, the EC50 in [3] and in [4] was > 112 µM (not active) in each case.

Consider `CS(=O)(=O)N1CCC2(CCCN(c3ccccn3)C2)CC1`, for which the AC50 is 15.8 µM (inconclusive) on Cytochrome P450 2C19 (read-out: AC50), 25.1 µM (inconclusive) at Cytochrome P450 2D6, 25.1 µM (inconclusive) at Cytochrome P450 1A2 and 15.8 µM (inconclusive) on Cytochrome P450 3A4.

Turning to `C/C=C(\C)C(=O)O[C@@H]1C(C)=C2[C@H]([C@@H]1OC(=O)CCCCCCC)[C@@](C)(OC(C)=O)C[C@@H](OC(=O)CCC)[C@@]1(O)[C@H]2OC(=O)[C@]1(C)O`, the AC50 on Cytochrome P450 2D6 and on Cytochrome P450 1A2 was 39.8 µM (inconclusive) each time.

Turning to `CN=C(S)Nc1ccc(C(N)=O)cc1`, the EC50 (in general, the midpoint of the concentration-response curve) in data set [4] is given as > 112 µM (not active).

For the molecule `CNC(=S)Nc1ccc(C(N)=O)cc1`, in data set [3], the EC50 is > 112 µM (not active).

For the molecule `Cc1ccc(-c2ccc(/C=C/C(=O)c3ccccc3)o2)cc1`, the CC50 in [1] was 12.8 µM (active).

`COc1ccccc1NC(=O)COC(=O)c1ccccc1C(=O)N1CCN(c2ccccc2)CC1`: the CC50 in [1] was 29.5 µM (active).

On to `Cc1ccc2[nH]c(SCC(=O)Nc3ccc(C)c([N+](=O)[O-])c3)nc2c1`, for which the CC50 in data set [1] was 25.5 µM (active).

Turning to `COc1cccc(N2CCN(Cc3nc(O)c4c(-c5ccccc5)csc4n3)CC2)c1`, the AC50 in data set [2] is 1.08 µM (active).

With `COc1ccc(-c2cn3c(C)c(C(=O)N4CCCc5ccccc54)sc3n2)cc1`, the half-maximal cytotoxic concentration (CC50) in data set [1] was 13.3 µM (active).

With `CCN(CCn1cccn1)Cc1c[nH]nc1-c1cccc2ccccc12`, the half-maximal effective concentration (EC50) in data set [3] and in [4] was > 112 µM (not active) each time.

With `COc1ccc(OC)c(CCNC(=O)CCc2nnc3ccc(N4CCCCC4)nn23)c1`, the 50% effective concentration (EC50) in data set [3] is > 112 µM (not active); in data set [4] it was 52.5 µM (active).

`COc1ccc(NC(=O)Nc2nc3c(s2)CCCC3)cc1`: the EC50 in [5] is > 150 µM (inactive); in [6] it was 8.48 µM (active).

Consider `O=C(c1ccccc1)[C@H]1[C@H](c2ccccc2[N+](=O)[O-])N1C1CCCCC1` (stereo partly drawn), for which the concentration at half-maximal activity (AC50) was 0.631 µM (inconclusive) at Cytochrome P450 1A2 and 3.98 µM (inconclusive) on Cytochrome P450 3A4.

As to `Cc1ccc(-n2c(C)cc(/C(O)=C(/C([S-])=Nc3ccc(F)c(Cl)c3)[n+]3ccccc3)c2C)cc1`, the EC50 in [5] was > 160 µM (inactive); in [6], > 38 µM (not active).

For the molecule `COc1ccc(C2NC(c3ccc(OC)cc3)C([N+](=O)[O-])C(C)(C)C2[N+](=O)[O-])cc1` (stereo not drawn), the EC50 in data set [3] and in [4] was > 112 µM (not active) throughout.

Consider `COCCCn1c(SCc2cccc(C(F)(F)F)c2)nc2cc(OC)c(OC)cc2c1=N`, for which the concentration giving a half-maximal response (EC50) is 1.92 µM (active) in [7] and > 60 µM (not active) in data set [8]. In addition, the concentration at half-maximal activity (AC50) in data set [2] was 4.12 µM (active).

Take `COc1cc(OC)cc(C(=O)NNC(=O)c2cc3ccccc3cc2O)c1`: the EC50 in data set [5] was > 160 µM (inactive); in [6], > 38 µM (not active).

Regarding `Cc1ccc(-n2c(-c3cccs3)nc3ccccc3c2=O)cc1`, the AC50 in [2] is 2 µM (active).

In the case of `CCOc1ccc(C(=O)Nc2ccc(Cc3ccncc3)cc2)cc1Br`, the EC50 in data set [5] is > 150 µM (inactive); in data set [6], > 38 µM (not active); in data set [7], 1.68 µM (active); in data set [8], > 60 µM (not active).

As for `Cc1cccc(NC(=O)CC2SC(=O)N(c3ccccc3)C2=O)c1` (stereo not drawn), the half-maximal effective concentration (EC50) in [3] and in data set [4] was > 112 µM (not active) in each case.

Take `COCCN(C(=O)CC(C)(C)C)c1nnc(-c2cccnc2)s1`: the EC50 in [3] and in data set [4] was > 112 µM (not active) each time.

Take `Cc1cc(NC(=O)c2ccc3c(c2)OCO3)ccc1NC(=O)c1ccco1`: the values for the EC50 in data set [3] and in data set [4] were 4.06 µM (active) and 12.7 µM (active), respectively.

Take `C[S+]([O-])c1ccccc1-c1nc(-c2cc(C(F)(F)F)cc(C(F)(F)F)c2)no1` (stereo not drawn): the AC50 is 8.91 µM (inconclusive) on Cytochrome P450 2C19 (read-out: AC50), 2.24 µM (inconclusive) at Cytochrome P450 1A2 and 17.8 µM (inconclusive) on Cytochrome P450 2C9.

Consider `CN(C)Cc1ccccc1-c1cncnc1NCc1cccnc1`, for which, at Cytochrome P450 1A2, the AC50 is 12.6 µM (inconclusive).

Consider `COc1cccc(CNC(=O)N[C@@H](CC(C)C)C(=O)O)c1`, for which the EC50 in [3] and in [4] was > 112 µM (not active) throughout.

As for `O=C(/C=C/c1ccc2c(c1)OCO2)Nc1nc(-c2ccccc2)cs1`, the concentration at half-maximal activity (AC50) in data set [2] was 0.943 µM (active).

On to `c1ccc(Cn2nnc3c(N4CCC5(CC4)OCCO5)ncnc32)cc1`, for which, in data set [1], the CC50 was 29.6 µM (active).

For the molecule `Cc1c(-c2c(C#N)c(N)nc3c2CCCCCC3)cnn1C`, the AC50 is 35.5 µM (inconclusive) at Cytochrome P450 1A2 and 22.4 µM (inconclusive) at Cytochrome P450 2C9.

Consider `N=C(Cc1ccc(Cl)cc1Cl)NOC(=O)c1ccccc1`, for which the EC50 was > 160 µM (inactive) in data set [5] and > 38 µM (not active) in data set [6].

Regarding `Cc1ccc(S(=O)(=O)N2[C@@H](c3ccc(C(C)(C)C)cc3)C(C(=O)O)=CC[C@H]2c2cccc(Cl)c2)cc1`, the AC50 in data set [2] is 2.86 µM (active).

Take `COc1cccc(C(=O)NCc2ccc3c(c2)cc(C)n3C)c1`: the figures for the EC50 in data set [3] and in data set [4] were > 112 µM (not active) and 21.3 µM (active), respectively.

Regarding `COCCNC(=O)C(c1ccc(C)o1)N(CCOC)C(=O)Cn1nnc2ccccc21` (stereo not drawn), the EC50 is > 150 µM (inactive) in [5] and > 38 µM (not active) in data set [6].

As for `Cc1cccc(C)c1NC(=O)CN(C)C(=O)Cn1c(=O)cnc2ccccc21`, the EC50 in data set [3] and in [4] was > 112 µM (not active) in each case.

`CC(=O)c1cccc(NC(=O)Oc2ccccc2)c1`: the concentration at half-maximal activity (AC50) result at Cytochrome P450 2C19 was “inconclusive”; at Cytochrome P450 1A2 it was 28.2 µM (inconclusive).

As for `CC1=C[N+](=O)c2ccccc2[N+]1=O`, on Cytochrome P450 1A2, the AC50 is 6.31 µM (inconclusive).

In the case of `CN1CCCC[C@@H]1CCN1CCCCC1`, at Cytochrome P450 1A2, the AC50 is 0.01 µM (inconclusive).

For `CCCCN(c1ccccc1)c1ncnc2c1cnn2C`, at Cytochrome P450 1A2, the AC50 is 0.631 µM (inconclusive).

Consider `Cc1nc2ccccc2cc1C[N+]12CN3CN(CN(C3)C1)C2`, for which the AC50 on Cytochrome P450 1A2 is 0.631 µM (inconclusive).

Take `Cn1cc(C(=O)N/N=C/C(Br)=C\c2ccccc2)ccc1=O`: the AC50 at Cytochrome P450 2C19 (read-out: AC50) was 28.2 µM (inconclusive); at Cytochrome P450 1A2, 3.55 µM (inconclusive).

Turning to `CCc1cccc2c(-c3cs/c(=N\C)n3C)c[nH]c12`, in [1], the CC50 is 41.7 µM (active).
